Laboratory results as given in patent US9095579B2 (priority 2012, dated 2015).
“Also recorded” adds a separate entry of the source.

Tested on: A/PR/8/34; H1N1 viruses (PR8-WT, PR8-A122V)
Design: species or system C57BL/6 mice
Conditions: mouse, in vivo

| SMILES | protection from the effects of influenza infection | columnar organization of the airway epithelium (ip) | epithelial damage in lung airways caused by PR8-WT and PR8-A122V (ip) |
| --- | --- | --- | --- |
| CC1=C2C[C@H]3[C@@H](CC=C4C[C@@H](O)CC[C@@]43C)[C@@H]2CC[C@]12O[C@@H]1C[C@H](C)CN[C@H]1[C@H]2C [cyclopamine] | partially protected | restored a degree of columnar organization | reduced epithelial damage; also recorded: partially rescued; also recorded: reduces viral damage in the lung |
| C[C@H]1CC[C@]2(NC1)O[C@H]1C[C@H]3[C@@H]4CC[C@H]5C[C@@H](O)CC[C@]5(C)[C@H]4CC[C@]3(C)[C@H]1[C@@H]2C [tomatidine] | – | – | no rescue of airway damage; also recorded: no obvious effect |
